This note sets out measurements from publication PMC4078735 (Journal of biomolecular screening, 2013).

For data set [1] the following is noted: PAMPA; for Permeability (Log Pe, cm/sec) Porcine polar brain lipid (PBL): pig, pH 7.4.
The conditions of data set [2]: PAMPA.
For data set [3] the following is noted: PAMPA. This is another data set of the same source.
For data set [4] the following is noted: PAMPA; for Permeability (Log Pe, cm/sec) Microvessel lipid + cholesterol (MVLC): pH 7.4.
A short description of data set [5]: in vitro. The following applies: PAMPA, pH 7.4.
Data set [6] can be described thus: in vitro. The following applies: PAMPA, pH 7.4. This is another data set of the same source.

SMILES strings stand for the structures. Counter-ions that a name gives are not always drawn.

For the molecule `CCC(=O)C(CC(C)N(C)C)(c1ccccc1)c1ccccc1` (racemic) [Methadone, (±) methadone HCl], the “Permeability (Log Pe, cm/sec) Porcine polar brain lipid (PBL)” value in data set [1] is recorded as −0.37 ± 0.07 cm/sec. The “Permeability (Log Pe, cm/sec) Dodecane” value in data set [2] (pH 7.4) is recorded as −1.54 ± 0.05 cm/sec.
On to `Cc1nnc2n1-c1ccc(Cl)cc1C(c1ccccc1)=NC2` [Alprazolam, alprazolam], for which, in data set [1], the “Permeability in the PBL model (in words)” value was “highly permeability”. Also, the “Permeability in the MVL model (in words)” value in data set [3] was “highly permeability”. Moreover, the “Permeability in the MVLC model (in words)” value in data set [4] is recorded as “highly permeability”.
Regarding `CO[C@]12CC[C@@]3(C[C@@H]1[C@](C)(O)C(C)(C)C)[C@H]1Cc4ccc(O[C@@H]5O[C@H](C(=O)O)[C@@H](O)[C@H](O)[C@H]5O)c5c4[C@@]3(CCN1CC1CC1)[C@H]2O5` [Buprenorphine glucuronide, buprenorphine-3-β-D-glucuronide], the “Permeability (Log Pe, cm/sec) Microvessel lipid + cholesterol (MVLC)” value in data set [4] is on record as −3.27 ± 0.21 cm/sec.
In data set [5], `Cn1c(=O)c2c(ncn2C)n(C)c1=O` [Caffeine, caffeine] had a Papp at 2 h, 2 µM of 724 ×10⁻⁶ cm/s.
On to `CN1CC[C@]23c4c5ccc(O)c4O[C@H]2[C@@H](O)CC[C@H]3[C@H]1C5` [Dihydromorphine, dihydromorphine], for which the “Permeability (Log Pe, cm/sec) Porcine polar brain lipid (PBL)” value in data set [1] is given as −1.76 ± 0.09 cm/sec. The “Ability to cross the dodecane barrier” value in data set [2] is recorded as “unable to cross the barrier”. In data set [5], this molecule had a Papp of 1510 ×10⁻⁶ cm/s.
`CN(C)C(=O)C(CCN1CCC(O)(c2ccc(Cl)cc2)CC1)(c1ccccc1)c1ccccc1` [Loperamide, loperamide]: in data set [4], the “Permeability (Log Pe, cm/sec) Microvessel lipid + cholesterol (MVLC)” value is −1.97 ± 0.08 cm/sec.
On to `CN(C)C[C@H]1CCCC[C@]1(O)c1cccc(O)c1` [O-desmethyl tramadol, O-desmethyltramadol], for which, in data set [1], the “Permeability (Log Pe, cm/sec) Porcine polar brain lipid (PBL)” value was −0.97 ± 0.04 cm/sec.
Turning to `COc1ccc2c3c1O[C@H]1C(=O)CC[C@@]4(O)[C@@H](C2)N(C)CC[C@]314` [Oxycodone, oxycodone], the “Ability to cross the dodecane barrier” value in data set [2] is “unable to cross the barrier”.
On to `COc1cccc(C2(O)CCCCC2CN(C)C)c1` (centres unmarked) [Tramadol], for which, in data set [6], the Papp is 117 ×10⁻⁶ cm/s.
